Reference: patent EP3845222A1, “MICROENCAPSULATED FORMULATION COMPRISING DIOSMIN, TROXERUTIN AND COUMARINS, COMPOSITIONS THEREOF AND USE THEREOF FOR THE TREATMENT OF CIRCULATORY DISORDERS” (Pharma Line S.r.l., priority 2019, dated 2021)

System: ligated saphenous vein (LSV)
Assay: In vivo ligated saphenous vein damage: histopathological examination (H&E)
Design: species or system NMRI mice
Settings: control (non-ligated) mice treated for 7 days; also no signs of tissue inflammation

In the case of `CCC(C)(C)C(=O)O[C@H]1C[C@@H](C)C=C2C=C[C@H](C)[C@H](CC[C@@H]3C[C@@H](O)CC(=O)O3)[C@H]21` [Simvastatin], the “changes in the lumen of the vessel” value is reported as “no significant changes”.
